{
  "source": "patent US20260224588A1",
  "about": "“BENZODIAZEPINONE-DERIVED INHIBITORS OF EGFR AND HER2” (The Research Foundation for the State University of New York, priority 2023, published 2026)",
  "key": {"MAP4K2": {"target": "MAP4K2 (Homo sapiens, UniProt Q12851)", "sequence (Q12851 whole entry)": "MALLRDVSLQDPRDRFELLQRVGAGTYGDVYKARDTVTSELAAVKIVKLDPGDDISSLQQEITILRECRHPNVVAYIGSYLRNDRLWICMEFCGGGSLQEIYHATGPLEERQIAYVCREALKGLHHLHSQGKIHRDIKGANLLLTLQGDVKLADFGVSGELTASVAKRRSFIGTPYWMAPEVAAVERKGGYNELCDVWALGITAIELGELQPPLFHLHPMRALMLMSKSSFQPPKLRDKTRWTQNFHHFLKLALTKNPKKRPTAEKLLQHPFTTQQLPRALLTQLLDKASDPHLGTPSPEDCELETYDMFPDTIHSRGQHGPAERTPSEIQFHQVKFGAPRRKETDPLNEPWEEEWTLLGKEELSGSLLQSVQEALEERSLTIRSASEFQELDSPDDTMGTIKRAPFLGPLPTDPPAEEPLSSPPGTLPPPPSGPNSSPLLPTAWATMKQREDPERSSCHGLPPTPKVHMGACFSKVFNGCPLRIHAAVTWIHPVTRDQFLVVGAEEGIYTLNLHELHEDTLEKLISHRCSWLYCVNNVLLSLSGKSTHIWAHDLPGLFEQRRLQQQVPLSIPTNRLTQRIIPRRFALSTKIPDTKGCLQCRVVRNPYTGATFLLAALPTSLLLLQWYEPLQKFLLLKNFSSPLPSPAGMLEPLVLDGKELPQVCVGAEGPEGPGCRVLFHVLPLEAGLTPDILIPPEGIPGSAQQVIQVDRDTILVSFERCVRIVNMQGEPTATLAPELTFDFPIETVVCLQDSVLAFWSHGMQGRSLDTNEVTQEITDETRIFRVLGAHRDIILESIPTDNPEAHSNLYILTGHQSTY", "experiment": "KINOMEscan", "format": "binding", "details": "1 μM of compound 4; read-out: POC"}, "MST3": {"target": "MST3 (Homo sapiens, UniProt Q9Y6E0)", "sequence (Q9Y6E0 whole entry)": "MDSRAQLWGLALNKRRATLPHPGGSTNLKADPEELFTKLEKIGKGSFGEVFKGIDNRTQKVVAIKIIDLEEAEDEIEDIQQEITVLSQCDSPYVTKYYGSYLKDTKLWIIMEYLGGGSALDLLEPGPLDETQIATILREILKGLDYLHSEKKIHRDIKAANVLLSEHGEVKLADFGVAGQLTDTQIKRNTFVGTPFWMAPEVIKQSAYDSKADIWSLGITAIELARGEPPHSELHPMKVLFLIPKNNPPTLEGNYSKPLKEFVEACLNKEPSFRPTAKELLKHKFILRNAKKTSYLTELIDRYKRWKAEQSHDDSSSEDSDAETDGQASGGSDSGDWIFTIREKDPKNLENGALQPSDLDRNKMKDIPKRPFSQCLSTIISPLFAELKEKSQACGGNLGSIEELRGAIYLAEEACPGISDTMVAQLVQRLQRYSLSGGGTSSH", "experiment": "KINOMEscan", "format": "binding", "details": "1 μM of compound 4; read-out: POC"}, "PCTK3": {"target": "T1, PCTK3 (Homo sapiens, UniProt Q07002)", "T1 construct": "purchased Eurofins DiscoverX Corporation (KINOMEscan)", "experiment": "KINOMEscan", "format": "binding", "details": "1 μM of compound 4; read-out: POC"}, "NDR2": {"target": "NDR2 (Homo sapiens, UniProt Q9Y2H1)", "sequence (Q9Y2H1 whole entry)": "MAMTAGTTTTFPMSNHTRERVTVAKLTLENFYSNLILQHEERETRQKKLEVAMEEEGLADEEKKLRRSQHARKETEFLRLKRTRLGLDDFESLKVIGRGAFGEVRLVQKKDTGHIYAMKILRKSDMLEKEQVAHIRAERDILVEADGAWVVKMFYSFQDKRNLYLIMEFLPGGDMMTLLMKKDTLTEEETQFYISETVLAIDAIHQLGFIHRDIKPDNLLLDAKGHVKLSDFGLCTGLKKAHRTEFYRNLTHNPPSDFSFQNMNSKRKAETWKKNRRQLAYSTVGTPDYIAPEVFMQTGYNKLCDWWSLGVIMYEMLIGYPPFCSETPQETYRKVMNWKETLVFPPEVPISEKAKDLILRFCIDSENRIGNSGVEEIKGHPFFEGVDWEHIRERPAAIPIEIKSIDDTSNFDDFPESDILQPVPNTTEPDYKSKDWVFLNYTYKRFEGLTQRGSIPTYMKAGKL", "experiment": "KINOMEscan", "format": "binding", "details": "1 μM of compound 4; read-out: POC"}, "[1]": {"target": "T2, ABL1(M351T)-phosphorylated (Homo sapiens, UniProt P00519, M351T)", "T2 construct": "purchased Eurofins DiscoverX Corporation", "experiment": "KINOMEscan", "format": "binding", "details": "1 μM of compound 4; read-out: POC"}, "EGFR(L861Q)": {"target": "T3, EGFR(L861Q) (Homo sapiens, UniProt P00533, L861Q)", "T3 construct": "purchased Eurofins DiscoverX (KINOMEscan service)", "T3 sequence (P00533 25-1210 L861Q)": "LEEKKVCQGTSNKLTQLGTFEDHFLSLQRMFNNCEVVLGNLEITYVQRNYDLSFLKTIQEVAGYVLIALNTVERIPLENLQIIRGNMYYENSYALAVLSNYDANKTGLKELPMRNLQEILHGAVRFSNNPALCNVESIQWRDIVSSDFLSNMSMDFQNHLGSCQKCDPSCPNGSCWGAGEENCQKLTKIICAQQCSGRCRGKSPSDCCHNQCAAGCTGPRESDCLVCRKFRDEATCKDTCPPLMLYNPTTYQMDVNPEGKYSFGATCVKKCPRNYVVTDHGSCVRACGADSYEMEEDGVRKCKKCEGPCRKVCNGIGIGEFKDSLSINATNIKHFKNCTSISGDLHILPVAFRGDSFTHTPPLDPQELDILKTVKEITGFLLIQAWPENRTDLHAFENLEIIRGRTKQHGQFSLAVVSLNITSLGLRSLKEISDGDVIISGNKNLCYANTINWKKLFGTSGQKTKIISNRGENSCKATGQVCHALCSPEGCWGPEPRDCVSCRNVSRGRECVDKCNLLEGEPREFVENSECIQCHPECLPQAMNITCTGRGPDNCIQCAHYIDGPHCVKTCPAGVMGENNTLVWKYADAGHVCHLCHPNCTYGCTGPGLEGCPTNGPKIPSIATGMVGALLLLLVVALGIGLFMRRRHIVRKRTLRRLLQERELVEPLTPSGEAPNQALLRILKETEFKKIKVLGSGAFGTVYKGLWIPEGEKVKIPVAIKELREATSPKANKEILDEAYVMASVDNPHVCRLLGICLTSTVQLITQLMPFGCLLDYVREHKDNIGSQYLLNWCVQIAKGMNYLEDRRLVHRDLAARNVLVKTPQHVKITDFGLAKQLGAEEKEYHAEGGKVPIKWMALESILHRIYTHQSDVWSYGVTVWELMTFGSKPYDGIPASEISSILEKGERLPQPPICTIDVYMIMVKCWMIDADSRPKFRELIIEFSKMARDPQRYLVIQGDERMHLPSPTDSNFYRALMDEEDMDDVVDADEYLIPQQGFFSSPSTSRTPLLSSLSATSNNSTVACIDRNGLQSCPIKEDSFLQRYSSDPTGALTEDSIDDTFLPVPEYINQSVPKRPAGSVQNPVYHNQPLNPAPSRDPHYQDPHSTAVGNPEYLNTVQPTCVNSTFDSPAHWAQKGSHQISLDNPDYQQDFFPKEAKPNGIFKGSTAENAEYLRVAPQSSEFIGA", "experiment": "KINOMEscan", "format": "binding", "details": "1 μM of compound 4; read-out: POC"}, "[2]": {"target": "T4, ABL1(H396P)-phosphorylated (Homo sapiens, UniProt P00519, H396P)", "T4 construct": "purchased Eurofins DiscoverX Corporation", "experiment": "KINOMEscan", "format": "binding", "details": "1 μM of compound 4; read-out: POC"}, "DCAMKL1": {"target": "DCAMKL1 (Homo sapiens, UniProt O15075)", "sequence (O15075 whole entry)": "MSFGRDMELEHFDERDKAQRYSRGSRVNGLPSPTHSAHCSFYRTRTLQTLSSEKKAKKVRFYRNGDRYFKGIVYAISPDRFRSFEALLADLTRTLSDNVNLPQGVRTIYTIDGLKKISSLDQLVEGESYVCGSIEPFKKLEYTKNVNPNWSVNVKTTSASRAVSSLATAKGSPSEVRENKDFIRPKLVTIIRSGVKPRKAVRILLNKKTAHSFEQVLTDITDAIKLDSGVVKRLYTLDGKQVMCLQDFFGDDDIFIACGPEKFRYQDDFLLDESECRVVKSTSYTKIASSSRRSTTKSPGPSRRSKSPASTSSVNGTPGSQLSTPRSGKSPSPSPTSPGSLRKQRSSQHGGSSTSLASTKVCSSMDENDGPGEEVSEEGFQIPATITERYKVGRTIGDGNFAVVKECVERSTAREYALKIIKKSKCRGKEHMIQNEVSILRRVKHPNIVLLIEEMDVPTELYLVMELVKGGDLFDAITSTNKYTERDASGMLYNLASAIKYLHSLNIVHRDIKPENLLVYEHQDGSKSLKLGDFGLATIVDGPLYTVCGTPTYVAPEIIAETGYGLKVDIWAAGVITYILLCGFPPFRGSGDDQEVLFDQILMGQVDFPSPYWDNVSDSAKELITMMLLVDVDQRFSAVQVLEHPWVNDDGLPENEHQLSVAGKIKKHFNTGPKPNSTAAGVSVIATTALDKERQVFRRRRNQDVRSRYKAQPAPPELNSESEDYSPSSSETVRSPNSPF", "experiment": "KINOMEscan", "format": "binding", "details": "1 μM of compound 4; read-out: POC"}, "CDK4-cyclinD3": {"target": "CDK4-cyclinD3 (Homo sapiens, UniProt P11802)", "sequence (P11802 whole entry)": "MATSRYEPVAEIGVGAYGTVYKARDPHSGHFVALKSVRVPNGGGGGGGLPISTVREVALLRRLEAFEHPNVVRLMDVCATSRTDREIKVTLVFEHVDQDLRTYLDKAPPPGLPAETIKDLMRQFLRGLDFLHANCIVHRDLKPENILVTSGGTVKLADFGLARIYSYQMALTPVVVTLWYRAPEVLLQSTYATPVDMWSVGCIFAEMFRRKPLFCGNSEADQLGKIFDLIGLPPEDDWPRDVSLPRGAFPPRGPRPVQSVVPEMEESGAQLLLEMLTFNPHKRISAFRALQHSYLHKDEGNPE", "sequence (P30281 whole entry partner)": "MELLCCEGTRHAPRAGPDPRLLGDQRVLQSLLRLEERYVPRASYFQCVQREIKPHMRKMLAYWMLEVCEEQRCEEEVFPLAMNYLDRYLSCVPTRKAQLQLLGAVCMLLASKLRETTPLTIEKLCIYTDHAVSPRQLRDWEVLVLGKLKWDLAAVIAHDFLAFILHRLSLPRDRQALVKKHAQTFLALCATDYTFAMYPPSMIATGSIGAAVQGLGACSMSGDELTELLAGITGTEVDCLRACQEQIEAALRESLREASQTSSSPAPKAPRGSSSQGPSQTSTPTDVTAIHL", "experiment": "KINOMEscan", "format": "binding", "details": "1 μM of compound 4; read-out: POC"}, "ABL1-nonphosphorylated": {"target": "T5, ABL1-nonphosphorylated (Homo sapiens, UniProt P00519)", "T5 construct": "purchased Eurofins DiscoverX Corporation", "experiment": "KINOMEscan", "format": "binding", "details": "1 μM of compound 4; read-out: POC"}, "PRKCQ": {"target": "PRKCQ (Homo sapiens, UniProt Q04759)", "experiment": "KINOMEscan", "format": "binding", "details": "1 μM of compound 4; read-out: POC"}, "TSSK1B": {"target": "T6, TSSK1B (Homo sapiens, UniProt Q9BXA7)", "T6 construct": "purchased Eurofins DiscoverX Corporation", "T6 sequence (Q9BXA7 whole entry)": "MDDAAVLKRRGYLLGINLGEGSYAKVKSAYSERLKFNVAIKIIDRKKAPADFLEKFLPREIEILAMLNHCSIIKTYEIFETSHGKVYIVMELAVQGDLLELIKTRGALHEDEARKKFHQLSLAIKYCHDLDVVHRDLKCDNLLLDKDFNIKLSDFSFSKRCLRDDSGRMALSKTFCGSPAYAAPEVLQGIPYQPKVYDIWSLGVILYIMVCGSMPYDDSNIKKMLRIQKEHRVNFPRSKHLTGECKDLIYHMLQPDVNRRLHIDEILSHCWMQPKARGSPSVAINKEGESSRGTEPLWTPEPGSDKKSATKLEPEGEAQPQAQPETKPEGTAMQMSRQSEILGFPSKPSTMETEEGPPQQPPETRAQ", "experiment": "KINOMEscan", "format": "binding", "details": "1 μM of compound 4; read-out: POC"}, "CAMK1B": {"target": "CAMK1B (Homo sapiens, UniProt Q6P2M8)", "experiment": "KINOMEscan", "format": "binding", "details": "1 μM of compound 4; read-out: POC"}, "SRC": {"target": "T7, SRC (Homo sapiens, UniProt P12931)", "T7 construct": "purchased Eurofins DiscoverX (KINOMEscan service)", "experiment": "KINOMEscan", "format": "binding", "details": "1 μM of compound 4; read-out: POC"}, "CDK8": {"target": "CDK8 (Homo sapiens, UniProt P49336)", "experiment": "KINOMEscan", "format": "binding", "details": "1 μM of compound 4; read-out: POC"}, "[3]": {"experiment": "Metabolic stability in Human Liver Microsomes (HLM)", "format": "in vitro ADME", "method": "Metabolic stability in Human Liver Microsomes (HLM). Pooled liver microsomes from humans (male) were purchased from Sekisui XenoTech, LLC, Kansas City, KS, USA. Metabolic stability assays were performed in the presence of an NADPH-regenerating system consisting of 5 mM glucose-6-phosphate, 5 U/mL glucose-6-phosphate dehydrogenase, and 1 mM NADP^+. Liver microsomes (20 mg/mL), NADPH-regenerating system, and 4 mM MgCl2·6 H2O in 0.1 M TRIS-HCl-buffer (pH 7.4) were preincubated for 5 min at 37° C. and 750 rpm on a shaker. The reaction was started by adding the preheated compound at 10 mM resulting in a final concentration of 0.1 mM. The reaction was quenched at selected time points (0, 10, 20, 30, 60, and 120 min) by pipetting 100 μL of internal standard (ketoprofen) at a concentration of 150 μM in acetonitrile. The samples were vortexed for 30 s and centrifuged (21910 relative centrifugal force, 4° C., 20 min). The supernatant was used directly for LC-MS analysis. All compound incubations were conducted at least in triplicates. Additionally, a negative control containing BSA (20 mg/mL) instead of liver microsomes and a positive control using verapamil instead of compound were performed. A limit of 1% organic solvent during incubation was not exceeded. […]"}, "MEK1": {"target": "MEK1 (Homo sapiens, UniProt Q02750)", "sequence (Q02750 whole entry)": "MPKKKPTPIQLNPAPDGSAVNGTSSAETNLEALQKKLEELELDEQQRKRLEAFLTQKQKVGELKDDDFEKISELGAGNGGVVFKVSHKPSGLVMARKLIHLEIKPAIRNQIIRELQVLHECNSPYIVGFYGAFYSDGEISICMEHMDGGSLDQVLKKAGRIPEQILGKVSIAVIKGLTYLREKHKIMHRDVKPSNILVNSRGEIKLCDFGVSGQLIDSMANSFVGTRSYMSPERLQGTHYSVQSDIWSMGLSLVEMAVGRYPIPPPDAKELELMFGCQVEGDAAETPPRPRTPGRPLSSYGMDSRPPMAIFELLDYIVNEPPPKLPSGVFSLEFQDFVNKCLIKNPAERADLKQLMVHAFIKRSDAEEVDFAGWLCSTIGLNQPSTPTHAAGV", "experiment": "KINOMEscan", "format": "binding", "details": "1 μM of compound 4; read-out: POC"}},
  "data": [
    {"smiles": "C=CC(=O)Nc1ccc(OC)c(Nc2cc(-c3[nH]c(CC)nc3-c3cccc(NC(=O)c4cccc5c4NC(=O)c4ccccc4N5)c3)ccn2)c1", "note": "[Compound 4, N-(3-(5-(2-((5-Acrylamido-2-methoxyphenyl)amino)pyridin-4-yl)-2-ethyl-1H-imidazol-4-yl)phenyl)-11-oxo-10,11-dihydro-5H-dibenzo[b,e][1,4]diazepine-9-carboxamide]", "values": [
      {"measurement": "remaining binding at 1 µM", "setting": "MAP4K2", "value": 36, "unit": "%"},
      {"measurement": "remaining binding at 1 µM", "setting": "MST3", "value": 73, "unit": "%"},
      {"measurement": "remaining binding at 1 µM", "setting": "PCTK3", "value": 93, "unit": "%"},
      {"measurement": "remaining binding at 1 µM", "setting": "NDR2", "value": 77, "unit": "%"},
      {"measurement": "remaining binding at 1 µM", "setting": "[1]", "value": 67, "unit": "%"},
      {"measurement": "remaining binding at 1 µM", "setting": "EGFR(L861Q)", "value": 2.7, "unit": "%"},
      {"measurement": "remaining binding at 1 µM", "setting": "[2]", "value": 74, "unit": "%"},
      {"measurement": "remaining binding at 1 µM", "setting": "DCAMKL1", "value": 100, "unit": "%"},
      {"measurement": "remaining binding at 1 µM", "setting": "CDK4-cyclinD3", "value": 49, "unit": "%"},
      {"measurement": "remaining binding at 1 µM", "setting": "ABL1-nonphosphorylated", "value": 100, "unit": "%"},
      {"measurement": "remaining binding at 1 µM", "setting": "PRKCQ", "value": 18, "unit": "%"},
      {"measurement": "remaining binding at 1 µM", "setting": "TSSK1B", "value": 95, "unit": "%"},
      {"measurement": "remaining binding at 1 µM", "setting": "CAMK1B", "value": 94, "unit": "%"},
      {"measurement": "remaining binding at 1 µM", "setting": "SRC", "value": 73, "unit": "%"},
      {"measurement": "remaining binding at 1 µM", "setting": "CDK8", "value": 81, "unit": "%"},
      {"measurement": "Metabolic stability in liver microsomes", "setting": "[3]", "value": "metabolically stable"},
      {"measurement": "remaining binding at 1 µM", "setting": "MEK1", "value": 100, "unit": "%"}
    ]}
  ]
}
